Measurements as given in ChEMBL document CHEMBL1135275, “Structural approach of the mechanism of inhibition of alpha-chymotrypsin by coumarins” (Bioorg Med Chem Lett, 2002).

Each compound was assayed against Chymotrypsinogen B (Bos taurus) (UniProt P00767) (assay: The compound was tested for inhibitory potency against Chymotrypsinogen).
Sequence of Chymotrypsinogen B (Bos taurus) (P00767 16-146 limits assumed, other chains not shown): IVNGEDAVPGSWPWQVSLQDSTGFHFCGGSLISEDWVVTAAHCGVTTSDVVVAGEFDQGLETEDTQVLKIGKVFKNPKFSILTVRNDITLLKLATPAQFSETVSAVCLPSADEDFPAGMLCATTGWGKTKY
Sequence of Chymotrypsinogen B (Bos taurus) (P00767 149-245 limits assumed, other chains not shown): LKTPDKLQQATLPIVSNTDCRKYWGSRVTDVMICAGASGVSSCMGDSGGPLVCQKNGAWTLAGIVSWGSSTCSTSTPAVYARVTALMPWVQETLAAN

| SMILES | K inact/Km [M⁻¹ s⁻¹] |
| --- | --- |
| O=C(Cc1ccccc1)c1cc2cc(CCl)ccc2oc1=O | 10000 |
| O=C(Oc1ccccc1)c1cc2cc(CCl)ccc2oc1=O | 100000 |

Other lines, results leading:

| K inact/Km [M⁻¹ s⁻¹] | SMILES |
| --- | --- |
| 200 | O=C(Nc1ccccc1)c1cc2cc(CCl)ccc2oc1=O |
| 48000 | O=C(Sc1ccccc1)c1cc2cc(CCl)ccc2oc1=O |
| 2400 | O=C(c1ccccc1)c1cc2cc(CCl)ccc2oc1=O |
